In ChEMBL document CHEMBL1138343 (J Med Chem, 2007):

Assays:
Glucocorticoid receptor [1] = target: T1, Glucocorticoid receptor (Homo sapiens, UniProt P04150)
T1 sequence (P04150 whole entry): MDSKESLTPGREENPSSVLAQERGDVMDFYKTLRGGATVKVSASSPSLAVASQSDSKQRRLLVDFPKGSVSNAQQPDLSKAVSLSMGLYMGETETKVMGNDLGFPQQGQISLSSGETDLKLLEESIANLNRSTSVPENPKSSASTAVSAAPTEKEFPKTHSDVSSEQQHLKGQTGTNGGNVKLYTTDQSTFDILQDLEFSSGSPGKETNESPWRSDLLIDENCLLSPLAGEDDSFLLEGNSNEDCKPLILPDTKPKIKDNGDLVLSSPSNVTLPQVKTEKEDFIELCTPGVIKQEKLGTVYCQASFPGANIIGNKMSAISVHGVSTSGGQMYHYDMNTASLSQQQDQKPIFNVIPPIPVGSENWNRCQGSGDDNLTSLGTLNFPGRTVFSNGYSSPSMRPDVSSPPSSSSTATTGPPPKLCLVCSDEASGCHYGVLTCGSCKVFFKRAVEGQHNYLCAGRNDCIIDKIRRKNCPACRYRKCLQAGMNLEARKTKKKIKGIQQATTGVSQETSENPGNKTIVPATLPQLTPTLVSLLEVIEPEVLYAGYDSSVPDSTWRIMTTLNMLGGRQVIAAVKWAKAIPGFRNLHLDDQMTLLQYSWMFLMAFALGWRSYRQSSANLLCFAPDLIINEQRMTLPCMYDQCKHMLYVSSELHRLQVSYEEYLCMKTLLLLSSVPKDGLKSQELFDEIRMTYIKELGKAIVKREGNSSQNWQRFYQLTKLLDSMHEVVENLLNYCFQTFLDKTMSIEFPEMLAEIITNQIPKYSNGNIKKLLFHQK

Glucocorticoid receptor [2] = target: T1, Glucocorticoid receptor; remark: listed apart in the source
Glucocorticoid receptor [3] = target: T1, Glucocorticoid receptor; remark: listed apart in the source
Description: Agonist activity at glucocorticoid receptor in human A549 cells by NF-kappaB transrepression assay

Glucocorticoid receptor [4] = target: T1, Glucocorticoid receptor; assay: Agonist activity at glucocorticoid receptor in human A549 cells by MMTV transactivation assay; type: functional, cell-based; conditions: for pEC50: a549

SMILES | IC50 (Glucocorticoid receptor [1]) | IC50 (Glucocorticoid receptor [2]) | IC50 (Glucocorticoid receptor [3]) | EC50 (Glucocorticoid receptor [4]) | pEC50 (Glucocorticoid receptor [4])
Cc1noc(=O)c2ccc(NC(=O)C(O)(CC3(C4CCCC4)CCCc4ccccc43)C(F)(F)F)cc12 (stereo not given) | 53.7 nM | 8.13 nM | 2.04 nM | 17.8 nM | –
CC1(CC(O)(Cc2cc3ccccc3[nH]2)C(F)(F)F)CCCc2ccccc21 (stereo not given) | 447 nM | 22.9 nM | 42.7 nM | 41.7 nM | –
CCC1(CC(O)(Cc2cc(Cl)nc3ccccc23)C(F)(F)F)CCCc2ccccc21 (stereo not given) | – | 28.2 nM | 30.2 nM | 51.3 nM | –
OC(Cc1ccnc2ccccc12)(CC1(C2CCCC2)CCCc2ccccc21)C(F)(F)F (stereo not given) | – | 148 nM | 741 nM | > 10000 nM | –
CCC1(CC(O)(Cc2[nH]c3ccccc3c2C#N)C(F)(F)F)CCCc2ccccc21 (stereo not given) | 57.5 nM | 7.59 nM | 6.61 nM | > 1000 nM | –
CC1(CC(O)(CNc2cccc3ncccc23)C(F)(F)F)CCCc2ccccc21 (stereo not given) | – | 6.31 nM | 3.09 nM | 13.5 nM | –
CCC1(CC(O)(Cn2ccc(=O)c3ccccc32)C(F)(F)F)CCCc2ccccc21 (stereo not given) | – | 14.1 nM | 8.13 nM | > 1000 nM | –
CCC1(CC(O)(CNc2cccc3ncccc23)C(F)(F)F)CCCc2ccccc21 (stereo not given) | – | 11.2 nM | 12.3 nM | > 1000 nM | –
CC1(CC(O)(Cn2ccc(=O)c3ccccc32)C(F)(F)F)CCCc2ccccc21 (stereo in doubt; 17D1) | 224 nM | 14.1 nM | 49 nM | – | < 6
CC1(CC(O)(Cn2ccc(=O)c3ccccc32)C(F)(F)F)CCCc2ccccc21 (stereo in doubt; 17D2) | 708 nM | 34.7 nM | > 1000 nM | > 1000 nM | –
CCC1(CC(O)(Cc2cc3ccccc3[nH]2)C(F)(F)F)CCCc2ccccc21 (stereo in doubt; 20D1) | – | 31.6 nM | 57.5 nM | 64.6 nM | –
CCC1(CC(O)(Cc2cc3ccccc3[nH]2)C(F)(F)F)CCCc2ccccc21 (stereo in doubt; 20D1E1) | 245 nM | 14.1 nM | 11.2 nM | 61.7 nM | –
CCC1(CC(O)(Cc2cc3ccccc3[nH]2)C(F)(F)F)CCCc2ccccc21 (stereo in doubt; 20D1E2) | – | 1260 nM | > 1000 nM | – | –
CCC1(CC(O)(Cc2cc3c(C)cc(C#N)cc3[nH]2)C(F)(F)F)CCCc2ccccc21 (stereo in doubt; 21D1) | – | 89.1 nM | 7.24 nM | 58.9 nM | –
CCC1(CC(O)(Cc2cc3c(C)cc(C#N)cc3[nH]2)C(F)(F)F)CCCc2ccccc21 (stereo in doubt; 21D1E2) | – | 38.9 nM | 3.8 nM | 51.3 nM | –
CCC1(CC(O)(Cc2cc3ccncc3[nH]2)C(F)(F)F)CCCc2ccccc21 (stereo in doubt; 23D1) | – | 28.2 nM | 20 nM | – | < 6

SMILES | IC50 (Glucocorticoid receptor [1]) | IC50 (Glucocorticoid receptor [2]) | IC50 (Glucocorticoid receptor [3]) | EC50 (Glucocorticoid receptor [4]) | pEC50 (Glucocorticoid receptor [4])
CCC1(CC(O)(Cc2cc3ccncc3[nH]2)C(F)(F)F)CCCc2ccccc21 (stereo in doubt; 23D1E1) | 741 nM | 8.91 nM | 8.91 nM | > 1000 nM | –
CCC1(CC(O)(Cc2ccnc3ccccc23)C(F)(F)F)CCCc2ccccc21 (stereo in doubt; 33D1) | 5010 nM | 15.1 nM | 4.9 nM | 38 nM | –
CCC1(CC(O)(Cc2ccnc3ccccc23)C(F)(F)F)CCCc2ccccc21 (stereo in doubt; 33D1E1) | – | 10 nM | 1.58 nM | > 1000 nM | –
CCC1(CC(O)(Cc2ccnc3ccccc23)C(F)(F)F)CCCc2ccccc21 (stereo in doubt; 33D2) | – | 33.1 nM | 275 nM | > 10000 nM | –
CC1(CC(O)(Cc2ccnc3ccccc23)C(F)(F)F)CCCc2ccccc21 (stereo in doubt; 41D1) | – | 15.1 nM | 7.08 nM | 12.9 nM | –
CC1(CC(O)(Cc2ccnc3ccccc23)C(F)(F)F)CCCc2ccccc21 (stereo in doubt; 41D2) | – | 24 nM | > 10000 nM | > 10000 nM | –
CCC1(CC(O)(CNc2cccc3nc(C)ccc23)C(F)(F)F)CCCc2ccccc21 (stereo in doubt; 45D1) | – | 14.8 nM | 2.4 nM | 13.2 nM | –
CCC1(CC(O)(CNc2cccc3nc(C)ccc23)C(F)(F)F)CCCc2ccccc21 (stereo in doubt; 45D1E1) | – | 14.8 nM | 1.95 nM | 11 nM | –
CCC1(CC(O)(CNc2cccc3nc(C)ccc23)C(F)(F)F)CCCc2ccccc21 (stereo in doubt; 45D2) | – | 18.6 nM | 49 nM | 162 nM | –
CCC1(CC(O)(CNc2cccc3nc(C)ccc23)C(F)(F)F)CCCc2ccccc21 (stereo in doubt; 45D2E1) | – | 17.4 nM | 45.7 nM | 288 nM | –
CCC1(CC(O)(CNc2cccc3cnccc23)C(F)(F)F)CCCc2ccccc21 (stereo in doubt; 49D1) | – | 21.4 nM | 1.26 nM | 32.4 nM | –
CCC1(CC(O)(CNc2cccc3cnccc23)C(F)(F)F)CCCc2ccccc21 (stereo in doubt; 49D1E2) | – | 10 nM | 2.19 nM | > 1000 nM | –
CC1(CC(O)(CNc2cccc3cnccc23)C(F)(F)F)CCCc2ccccc21 (stereo in doubt; 54D1E2) | 102 nM | 8.71 nM | 1.17 nM | 8.32 nM | –
CC1(CC(O)(CNc2cccc3cnccc23)C(F)(F)F)CCCc2ccccc21 (stereo in doubt; 54D2E1) | – | 74.1 nM | 15.1 nM | 257 nM | –
Cc1ccc2c(NCC(O)(CC3(C)CCCc4ccccc43)C(F)(F)F)cccc2n1 (stereo in doubt; 55D1E1) | 77.6 nM | 5.01 nM | 0.501 nM | 9.55 nM | –
Cc1ccc2c(NCC(O)(CC3(C)CCCc4ccccc43)C(F)(F)F)cccc2n1 (stereo in doubt; 55D2E1) | – | 9.12 nM | 9.12 nM | 72.4 nM | –
